IC50 data for four molecules are collected here from US11518758B2, “Heteroarylaminopyrimidine amide autophagy inhibitors and methods of use thereof” (Deciphera Pharmaceuticals, LLC, priority 2019, dated 2022).

One assay concerns the target T1, ULK1 kinase (Homo sapiens, UniProt O75385).
T1 construct: purchased Eurofins 14-959
T1 sequence (O75385 with tags, fused parts or gaps): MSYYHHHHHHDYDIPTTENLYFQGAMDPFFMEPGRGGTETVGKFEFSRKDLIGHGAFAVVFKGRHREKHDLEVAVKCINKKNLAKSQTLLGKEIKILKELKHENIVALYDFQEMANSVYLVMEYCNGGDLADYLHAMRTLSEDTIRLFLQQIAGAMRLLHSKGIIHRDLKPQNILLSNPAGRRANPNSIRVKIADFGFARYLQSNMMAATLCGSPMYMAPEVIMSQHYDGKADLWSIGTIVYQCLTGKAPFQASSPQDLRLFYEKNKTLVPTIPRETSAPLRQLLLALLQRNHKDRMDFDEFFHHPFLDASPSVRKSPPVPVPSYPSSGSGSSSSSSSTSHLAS
Briefly: Biochemical assay for ULK1.2 (coupled pyruvate kinase/lactate dehydrogenase assay). The following applies: 19 nM ULK1 (Eurofins), myelin basic protein, 1 mM ATP. In a few lines:
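NADH-coupled PK/LDH read-out at 340 nm, run with 19 nM ULK1, 0.25 mg/mL myelin basic protein and 1 mM ATP. Buffer was 100 mM Tris pH 7.5 with 15 mM MgCl2 and 1% DMSO final. Monitoring was continuous for 6 hours at 30° C; rates from the 2-3 h window were converted to percent inhibition and fitted to a four-parameter curve for IC50.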

A further assay concerns the target T2, ULK2 kinase (Homo sapiens, UniProt Q8IYT8).
T2 construct: purchased Eurofins 14-772
Briefly: Biochemical assay for ULK2 (coupled pyruvate kinase/lactate dehydrogenase assay). Conditions: 9.7 nM ULK2 (Eurofins), myelin basic protein, 1 mM ATP; read-out: ULK2.2. The essentials: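 Continuous PK/LDH-coupled NADH-oxidation assay with 9.7 nM ULK2, 0.25 mg/mL myelin basic protein and 1 mM ATP in Tris pH 7.5, MgCl2, DTT buffer, 1% DMSO. A340 followed 6 h at 30° C; rates from 2-3 h window converted to % inhibition, IC50 from four-parameter fit.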

The test system of assay [1] is phospho-Serine 318 ATG13 (pATG13), ULK kinase substrate, in A549 (KRAS mutant) cells. Briefly: pATG13 levels of mutant KRas A549 cells after treatment with ULK inhibitors in combination with trametinib (ELISA). In kind it is cell-based, human. The following applies: with 250 nM trametinib. The essentials: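 A549 cells grown overnight were treated overnight at 37 °C with a dose response of test compound plus 250 nM trametinib (final) or DMSO. Lysates were assayed by sandwich ELISA, with total ATG13 capture and biotinylated pS318-ATG13 detection read at 450 nm minus 540 nm, giving % phosphorylation against control and IC50.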

For assay [2], the system named is phospho-Serine 318 ATG13 (pATG13) in HCT-116 cells. Briefly: pATG13 levels of mutant KRas HCT-116 cells after treatment with ULK inhibitors in combination with trametinib (ELISA). It counts as cell-based, human. How it is done: Example 179. pATG13 Levels of Mutant KRas HCT-116 Cells after Treatment with ULK Inhibitors in Combination with Trametinib
(§1) HCT-116 human colon cancer cells (10000 cells/well) were added to a 384-well tissue-culture treated plate in 50 μL of pre-warmed DMEM medium supplemented with 10% characterized fetal bovine serum (Invitrogen, Carlsbad, Calif.), 100 units/mL penicillin G, and 100 μg/mL streptomycin and allowed to grow overnight at 37° C., 5% CO2, and 95% humidity. The following day, 10 μL of media containing trametinib or DMSO as a control was added to wells. The final concentration of trametinib in wells was 250 nM. A dose response of a test compound (0.6 μL per well) was added. DMSO (0.6 μL) was added to control wells. The plate was briefly shaken to mix wells and then incubated at 37° C. overnight. The next day, the media was aspirated and cells were washed with Dulbecco's Phosphate Buffered Saline (Gibco). Cells were lysed using MPER lysis buffer (Pierce, Rockford, Ill.) containing Halt Phosphatase and Protease Inhibitors (Pierce, Rockford, Ill.) and Phosphatase inhibitor cocktail 2 (Sigma, St. Louis, Mo.) at 4° C. for 10 minutes with shaking.
(§2) Cellular levels of phospho-Serine 318 ATG13 (pATG13) were measured via an ELISA method. Total ATG13 Antibody (Cell Signaling Cat #13273) was used to coat the wells. The plate was incubated at 4° C. overnight and washed with ELISA wash buffer (Biolegend Cat #421601). The wells were then blocked with assay diluent (Biolegend Cat #421203) for 1 hour at room temperature. Plate wells were washed with ELISA wash buffer. Cell lysate was added to wells and incubated at room temperature for 2 hours. Plate wells were washed with ELISA wash buffer. Biotinylated pS318-ATG13 antibody (Rockland Immunochemicals Cat #600-401-C49) was diluted in assay diluent and added to each well and incubated at room temperature for 1 hour. Plate wells were washed with ELISA wash buffer. Streptavidin linked to horseradish peroxidase (Thermo Fisher Cat #21140) was diluted in assay diluent and added to each well and incubated at room temperature for 1 hour. Plate wells were washed with ELISA wash buffer. High sensitivity TMB substrate (Biolegend Cat #421101) was added to each well and incubated at room temperature for 20 minutes. The reaction was stopped with 2N Sulfuric Acid. The plate was analyzed at on a plate reader measuring absorbance at 450 nm and 540 nm (background). Signal was calculated by first subtracting the background absorbance at 540 nm from the absorbance at 450 nm for each well. Next, the background corrected absorbance at 450 nm from blank wells was subtracted from test wells. Data was compared to control wells to determine % ATG13 phosphorylation. GraphPad Prism was used to calculate IC50 values.

The subject of assay [3] is phospho-Serine 318 ATG13 (pATG13) in MiaPaCa-2 cells. Briefly: pATG13 levels of mutant KRas MiaPaCa-2 cells after treatment with ULK inhibitors in combination with trametinib (ELISA). In kind it is cell-based, human. The protocol:
Example 178. pATG13 Levels of Mutant KRas MiaPaCa-2 Cells after Treatment with ULK Inhibitors in Combination with Trametinib
as §1, with “MiaPaCa-2” for “HCT-116”, “pancreatic” for “colon”, “G,” for “G, and”, “streptomycin, and 2.5% Horse Serum” for “streptomycin”
as §2

pIC50: −log10 of the molar value.

T2 sequence (Q8IYT8 with tags, fused parts or gaps): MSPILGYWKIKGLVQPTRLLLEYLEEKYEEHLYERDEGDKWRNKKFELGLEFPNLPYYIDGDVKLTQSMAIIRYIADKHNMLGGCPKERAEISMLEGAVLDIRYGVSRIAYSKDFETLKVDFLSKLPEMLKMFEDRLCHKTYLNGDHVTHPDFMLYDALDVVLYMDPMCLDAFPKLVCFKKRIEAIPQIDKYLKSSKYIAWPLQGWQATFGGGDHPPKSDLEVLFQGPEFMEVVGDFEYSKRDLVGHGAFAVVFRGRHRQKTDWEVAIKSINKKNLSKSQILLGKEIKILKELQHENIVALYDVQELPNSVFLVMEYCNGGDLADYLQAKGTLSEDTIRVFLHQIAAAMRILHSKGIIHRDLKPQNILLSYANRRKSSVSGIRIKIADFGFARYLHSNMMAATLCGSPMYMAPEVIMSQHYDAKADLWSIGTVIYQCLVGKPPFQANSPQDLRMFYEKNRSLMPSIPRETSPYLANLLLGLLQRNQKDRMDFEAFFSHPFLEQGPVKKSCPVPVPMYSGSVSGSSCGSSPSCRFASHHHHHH

On to `O=C1CCCCN1CCCNc1nc(Nc2cnn(C3CCNCC3)c2)ncc1C(F)(F)F` [Example 7], for which the pIC50 is 7.60 to 9.00 against ULK1 kinase, 7.60 to 9.00 on ULK2 kinase, 7.00 to 8.00 in assay [1] and 6.52 to 7.00 in assay [2].

In the case of `Cc1nn(C2CCNCC2)cc1Nc1ncc(C(F)(F)F)c(NCCCN2CCCCC2=O)n1` [Example 14], the pIC50 is 7.60 to 9.00 against ULK1 kinase, 7.60 to 9.00 on ULK2 kinase, 6.22 to 6.52 in assay [1] and 7.00 to 8.00 in assay [2].

For the molecule `CCc1nn(C2CCN(C)CC2)cc1Nc1ncc(C(F)(F)F)c(NCCCN2CCCOCC2=O)n1` [Example 109], the pIC50 against ULK1 kinase is 7.00 to 7.60; in assay [1], 6.52 to 7.00; in assay [3] it was 6.52 to 7.00; in assay [2], 7.00 to 8.00.

Take `CCc1nn(C2CCNCC2)cc1Nc1ncc(C(F)(F)F)c(NCCCN2CCCCC2=O)n1` [Example 40]: the pIC50 was 7.60 to 9.00 at ULK1 kinase, 6.22 to 6.52 in assay [1], 7.00 to 8.00 in assay [3] and 7.00 to 8.00 in assay [2].
